Laboratory results: US20240400555A1 (Initial Therapeutics, Inc., priority 2023, published 2024)

What follows are compounds tested on HCT-116 Firefly-luciferase reporter cells (assay: Cellular c-MYC Reporter Assay). Conditions: Homo sapiens, HCT-116, 24 h, read-out: pIC50 (converted).
Format: cell-based
Summary of the method: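 Compound exposure lasted 24 h at 37 °C, 5% CO2, in complete McCoy's 5A medium containing 0.2% DMSO, beginning 4–6 h post-seeding (5e4 cells/mL). Firefly luciferase signal measured by luminescence after 10 min ONE-Glo development at room temperature.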

| Compound | IC50 |
| --- | --- |
| Cc1cccc2ccnc(N(C(=O)c3ccc(-n4nnc5cccnc54)cc3)[C@H]3CCCNCC3)c12 [Example 228, (S)-4-(3H-[1,2,3]triazolo[4,5-b]pyridin-3-yl)-N-(azepan-4-yl)-N-(8-methylisoquinolin-1-yl)benzamide] | > 20 µM |

Same assay, conditions: Homo sapiens; untitled table following Table 8a; HCT-116 Firefly-luciferase reporter cells, 24 h; read-out: pIC50 (converted)

| Compound | IC50 |
| --- | --- |
| Cc1cccc2ccnc(N(C(=O)c3ccc(Nc4ncco4)cc3F)[C@@H]3CCCNC3)c12 [Example 290, (R)-2-fluoro-N-(8-methylisoquinolin-1-yl)-4-(oxazol-2-ylamino)-N-(piperidin-3-yl) benzamide] | 3.39 µM |
| Cc1cccc2ccnc(N(C(=O)c3ccc(-c4cnn(C)c4C(=O)O)cc3)[C@@H]3CCCNC3)c12 [Example 294, 2-methyl-4-[4-[(8-methyl-1-isoquinolyl)-[(3R)-3-piperidyl]carbamoyl]phenyl] pyrazole-3-carboxylic acid] | > 10 µM |
| Cc1cccc2ccnc(N(C(=O)c3ccc(-n4nnc5ccc(C#N)nc54)cc3F)[C@@H]3CCCNC3)c12 [Example 191, (R)-4-(5-cyano-3H-[1,2,3]triazolo[4,5-b]pyridin-3-yl)-2-fluoro-N-(8-methylisoquinolin-1-yl)-N-(piperidin-3-yl)benzamide] | 0.0107 µM |
| Cc1cccc2ccnc(N(C(=O)c3cccc(Cn4ccnn4)c3F)[C@@H]3CCCNC3)c12 [Example 271, (R)-3-((1H-1,2,3-triazol-1-yl)methyl)-2-fluoro-N-(8-methylisoquinolin-1-yl)-N-(piperidin-3-yl)benzamide] | 4.79 µM |
| O=C(c1ncc(-n2nnc3cccnc32)cc1F)N(c1nccc2cccc(Cl)c12)[C@@H]1CCCNC1 [Example 200, (R)-5-(3H-[1,2,3]triazolo[4,5-b]pyridin-3-yl)-N-(8-chloroisoquinolin-1-yl)-3-fluoro-N-(piperidin-3-yl)picolinamide] | 0.0776 µM |
| Cc1cccc2ccnc(N(C(=O)c3ccc(-n4nnc5ccc(Cl)nc54)cc3F)[C@@H]3CCCNC3)c12 [Example 192, (R)-4-(5-chloro-3H-[1,2,3]triazolo[4,5-b]pyridin-3-yl)-2-fluoro-N-(8-methylisoquinolin-1-yl)-N-(piperidin-3-yl)benzamide] | 0.17 µM |
| Cc1cccc2ccnc(N(C(=O)c3ccc(-c4cnn(C)c4-c4ccccc4)cc3F)[C@@H]3CCCNC3)c12 [Example 126, (R)-2-fluoro-4-(1-methyl-5-phenyl-1H-pyrazol-4-yl)-N-(8-methylisoquinolin-1-yl)-N-(piperidin-3-yl) benzamide] | 0.355 µM |
| COc1cccc2ccnc(N(C(=O)c3ccc(-n4nnc5cccnc54)cc3F)[C@@H]3CCCNC3)c12 [Example 222, (R)-4-(3H-[1,2,3]triazolo[4,5-b]pyridin-3-yl)-2-fluoro-N-(8-methoxyisoquinolin-1-yl)-N-(piperidin-3-yl)benzamide] | 0.0933 µM |
| O=C(c1ccc(-n2nnc3cccnc32)cc1F)N(c1nccc2sc(C3=CCNCC3)cc12)[C@@H]1CCCNC1 [Example 159, (R)-4-(3H-[1,2,3]triazolo[4,5-b]pyridin-3-yl)-2-fluoro-N-(piperidin-3-yl)-N-(2-(1,2,3,6-tetrahydropyridin-4-yl)thieno[3,2-c]pyridin-4-yl)benzamide] | 2.63 µM |
| Cc1ccc2nnn(-c3ccc(C(=O)N(c4nccc5ccn(C)c45)[C@@H]4CCCNC4)c(F)c3)c2n1 [Example 209, (R)-2-fluoro-N-(1-methyl-1H-pyrrolo[2,3-c]pyridin-7-yl)-4-(5-methyl-3H-[1,2,3]triazolo[4,5-b]pyridin-3-yl)-N-(piperidin-3-yl)benzamide] | 0.141 µM |
| Cn1cc(-c2ccc(C(=O)N(c3cc(/C=C/c4ccccc4)ccn3)[C@@H]3CCCNC3)cc2)nn1 [Example 109, (R,E)-4-(1-methyl-1H-1,2,3-triazol-4-yl)-N-(piperidin-3-yl)-N-(4-styrylpyridin-2-yl)benzamide] | > 10 µM |
| O=C(c1ccc(-n2nnc3cccnc32)cc1F)N(c1nccc2scc(Br)c12)[C@@H]1CCCNC1 [Example 122, (R)-4-(3H-[1,2,3]triazolo[4,5-b]pyridin-3-yl)-N-(3-bromothieno[3,2-c]pyridin-4-yl)-2-fluoro-N-(piperidin-3-yl)benzamide] | 0.123 µM |
| O=C(c1ccc(-n2nnc3cccnc32)cc1F)N(c1nccc2ccc(CO)cc12)[C@@H]1CCCNC1 [Example 154, (R)-4-(3H-[1,2,3]triazolo[4,5-b]pyridin-3-yl)-2-fluoro-N-(7-(hydroxymethyl)isoquinolin-1-yl)-N-(piperidin-3-yl)benzamide] | 1.05 µM |
| C#Cc1cccnc1N(C(=O)c1ccc(-n2nnc3cccnc32)cc1F)[C@@H]1CCCNC1 [Example 107, (R)-4-(3H-[1,2,3]triazolo[4,5-b]pyridin-3-yl)-N-(3-ethynylpyridin-2-yl)-2-fluoro-N-(piperidin-3-yl)benzamide] | 0.977 µM |
| NC(=O)/C=C/c1ccc2ccnc(N(C(=O)c3ccc(-n4nnc5cccnc54)cc3F)[C@@H]3CCCNC3)c2c1 [Example 149, (R,E)-4-(3H-[1,2,3]triazolo[4,5-b]pyridin-3-yl)-N-(7-(3-amino-3-oxoprop-1-en-1-yl)isoquinolin-1-yl)-2-fluoro-N-(piperidin-3-yl)benzamide] | 3.8 µM |
| Cc1cccc2ccnc(N(C(=O)C3CCN(C=O)CC3)[C@@H]3CCCNC3)c12 [Example 301, (R)-1-formyl-N-(8-methylisoquinolin-1-yl)-N-(piperidin-3-yl) piperidine-4-carboxamide] | > 10 µM |

| Compound | IC50 |
| --- | --- |
| Cc1cccc2ccnc(N(C(=O)c3ccc(-n4nnc5ccccc54)cc3)[C@@H]3CCCNC3)c12 [Example 223, (R)-4-(1H-benzo[d][1,2,3]triazol-1-yl)-N-(8-methylisoquinolin-1-yl)-N-(piperidin-3-yl)benzamide] | 0.214 µM |
| O=C(c1ccc(-n2nnc3cccnc32)cc1F)N(c1ncccc1C#CCCO)[C@@H]1CCCNC1 [Example 105, 2-fluoro-N-[3-(4-hydroxybut-1-ynyl)-2-pyridyl]-N-[(3R)-3-piperidyl]-4-(triazolo[4,5-b]pyridin-3-yl)benzamide] | 6.31 µM |
| NC(=O)CCc1ccc2ccnc(N(C(=O)c3ccc(-n4nnc5cccnc54)cc3F)[C@@H]3CCCNC3)c2c1 [Example 148, (R)-4-(3H-[1,2,3]triazolo[4,5-b]pyridin-3-yl)-N-(7-(3-amino-3-oxopropyl)isoquinolin-1-yl)-2-fluoro-N-(piperidin-3-yl)benzamide] | 13.8 µM |
| O=C(c1ccc(-n2nnc3cccnc32)cc1F)N(c1nccc2ccncc12)[C@@H]1CCCNC1 [Example 300, (R)-4-(3H-[1,2,3]triazolo[4,5-b]pyridin-3-yl)-2-fluoro-N-(2,7-naphthyridin-1-yl)-N-(piperidin-3-yl)benzamide] | > 20 µM |
| Cn1ncc2ccnc(N(C(=O)c3ccc(Nc4ncccn4)cc3F)[C@@H]3CCCNC3)c21 [Example 119, (R)-2-fluoro-N-(1-methyl-1H-pyrazolo[3,4-c]pyridin-7-yl)-N-(piperidin-3-yl)-4-(pyrimidin-2-ylamino)benzamide] | 1.41 µM |
| O=C(c1ccc(-n2nnc3cccnc32)cc1F)N(c1nccc2cc(F)ccc12)[C@@H]1CCCNC1 [Example 144, (R)-4-(3H-[1,2,3]triazolo[4,5-b]pyridin-3-yl)-2-fluoro-N-(6-fluoroisoquinolin-1-yl)-N-(piperidin-3-yl)benzamide] | 0.603 µM |
| Cc1nccnc1-c1ccc(C(=O)N(c2nccc3cccc(C)c23)[C@@H]2CCCNC2)c(F)c1 [Example 203, (R)-2-fluoro-N-(8-methylisoquinolin-1-yl)-4-(3-methylpyrazin-2-yl)-N-(piperidin-3-yl)benzamide] | 0.129 µM |
| Cc1cccc2ccnc(N(C(=O)N3CCCC(CC4CCC4)C3)[C@@H]3CCCNC3)c12 (stereo partly drawn) [Example 260, 3-(cyclobutylmethyl)-N-(8-methylisoquinolin-1-yl)-N—((R)-piperidin-3-yl)piperidine-1-carboxamide] | 5.25 µM |
| Cc1cccc2ccnc(N(C(=O)c3ccc(-n4nnc5cccnc54)cc3F)[C@H]3CNCC(F)(F)C3)c12 [Example 175, (R)-4-(3H-[1,2,3]triazolo[4,5-b]pyridin-3-yl)-N-(5,5-difluoropiperidin-3-yl)-2-fluoro-N-(8-methylisoquinolin-1-yl)benzamide] | 9.33 µM |
| O=C(c1ccc(-n2nnc3cccnc32)cc1F)N(c1ncccc1-c1cc2cnccc2s1)[C@@H]1CCCNC1 [Example 157, (R)-4-(3H-[1,2,3]triazolo[4,5-b]pyridin-3-yl)-2-fluoro-N-(piperidin-3-yl)-N-(3-(thieno[3,2-c]pyridin-2-yl)pyridin-2-yl)benzamide] | 0.501 µM |
| O=C(O)c1ccc2c(N(C(=O)c3ccc(-n4nnc5cccnc54)cc3F)[C@@H]3CCCNC3)nccc2c1 [Example 118, (R)-1-(4-(3H-[1,2,3]triazolo[4,5-b]pyridin-3-yl)-2-fluoro-N-(piperidin-3-yl)benzamido)isoquinoline-6-carboxylic acid] | > 20 µM |
| Cc1cccc2ccnc(N(C(=O)c3ccc(-n4nnc5cccnc54)cc3)[C@@H]3CCNC3)c12 [Example 232, (R)-4-(3H-[1,2,3]triazolo[4,5-b]pyridin-3-yl)-N-(8-methylisoquinolin-1-yl)-N-(pyrrolidin-3-yl)benzamide] | 8.51 µM |
| Cn1cnc2ccnc(N(C(=O)c3ccc(-n4nnc5cccnc54)cc3F)[C@@H]3CCCNC3)c21 [Example 248, (R)-4-(3H-[1,2,3]triazolo[4,5-b]pyridin-3-yl)-2-fluoro-N-(3-methyl-3H-imidazo[4,5-c]pyridin-4-yl)-N-(piperidin-3-yl)benzamide] | 0.851 µM |
| Cc1cccc2ccnc(N(C(=O)c3ccc(-n4nnc5cccnc54)cc3)[C@H]3CCCCNC3)c12 [Example 227, (S)-4-(3H-[1,2,3]triazolo[4,5-b]pyridin-3-yl)-N-(azepan-3-yl)-N-(8-methylisoquinolin-1-yl)benzamide] | > 20 µM |
| Cc1cccc2ccnc(N(C(=O)c3ccc(-c4cccnc4)cc3)[C@@H]3CCCNC3)c12 [Example 233, (R)—N-(8-methylisoquinolin-1-yl)-N-(piperidin-3-yl)-4-(pyridin-3-yl)benzamide] | 0.708 µM |
